According to patent US6372493B1, “Hormone-secreting cells maintained in long-term culture” (Pacific Biomedical Research, Inc. [Cell Mart, Inc.], priority 1991, dated 2002):

How the values were obtained:
[1] = test system: human follicular cells; assay: Long-term hormone secretion of follicular sub-cultures with added testosterone substrate (Example 2); format: cell-based; design: dose or concentration left out as unconfirmed; settings: testosterone added as substrate for steroid production
Procedure: Cells in SC-2 were propagated and sub-cultured as above more than 20 times. […] Quantitative radioimmune assays (RIA) were employed as described in Radioassay Systems in Clinical Endocrinology, 1981, Ed. G. E. Abraham, {Basel: Marcel Dekker}, pp. 475-529. Progesterone, testosterone, estradiol, prolactin, thyroid stimulating hormone and luteinizing hormone were assayed by the Coat-a-Count procedure (Diagnostic Products Corp., Los Angeles). Follicle-stimulating hormone and B-hCG were assayed by the SERONO MATAclone procedure (Serono, Italy).
Conclusions: Using this method, human follicular cells were propagated in culture and transferred to serial subcultures which continued to proliferate and to secrete hormones.

[2] = test system: Human pancreas cells at passage generation 47; assay: Effect of amino acids on glucose stimulated insulin secretion (Example 20); format: cell-based; settings: for insulin secretion, +20 mM arginine / insulin secretion, +10 mM alanine: 90 minutes
Procedure: Human pancreas cells at passage generation 47, were prepared for the experiment as described in Example 17 above. The cells were incubated in 6 parts PDM plus 1 part DMSS medium at a concentration of 10^5 cells/ml, at various concentrations of glucose. Alanine (10 mM) or arginine(20 mM) were added, and the cells were incubated for 90 minutes, at which time samples were collected for assay of insulin content.

[3] = test system: Ovarian follicular cells, lines 100B-OR-5A, 100B5-OR-B, 100B5-OR-D; assay: 8-Br-cAMP / FSH stimulation of progesterone secretion by cultured follicular cells; format: cell-based, human; settings: 1 mM 8-Br-cAMP, 24 hours
Procedure: Cells in SC-2 were propagated and sub-cultured as above more than 20 times. […] Quantitative radioimmune assays (RIA) were employed as described in Radioassay Systems in Clinical Endocrinology, 1981, Ed. G. E. Abraham, {Basel: Marcel Dekker}, pp. 475-529. Progesterone, testosterone, estradiol, prolactin, thyroid stimulating hormone and luteinizing hormone were assayed by the Coat-a-Count procedure (Diagnostic Products Corp., Los Angeles).
Ovarian follicular cells, lines 100B-OR-5A, 100B5-OR-B, and 100B5-OR-D, were established in culture as described in Example 1 and maintained and sub-cultured as described in Example 2. From these lines were created sub-cultures designated 1, 2, and 3 respectively, which were employed in the stimulation protocol described below.

C[C@]12CC[C@H]3[C@@H](CCC4=CC(=O)CC[C@@]43C)[C@@H]1CC[C@@H]2O [testosterone]
time subcultures continued to secrete hormones after first placed in culture [1]: ≤ 16 months

N=C(N)NCCC[C@H](N)C(=O)O [arginine]
insulin secretion, +20 mM arginine ([2]; total 1 mM glucose): 128
insulin secretion, +20 mM arginine ([2]; total 2 mM glucose): 134
insulin secretion, +20 mM arginine ([2]; total 6 mM glucose): 105
insulin secretion, +20 mM arginine ([2]; total 11 mM glucose): 93
insulin secretion, +20 mM arginine ([2]; total 16 mM glucose): 99
insulin secretion, +20 mM arginine ([2]; total 22 mM glucose): 94

Nc1ncnc2c1nc(Br)n2[C@@H]1O[C@@H]2COP(=O)(O)O[C@H]2[C@H]1O [8-Br-cAMP]
Prog ([3]; culture 1): 24.5 ng/10^6 cells
Prog ([3]; culture 2): 12.9 ng/10^6 cells
Prog ([3]; culture 3): 20.8 ng/10^6 cells

C[C@H](N)C(=O)O [alanine, Alanine]
increase of insulin secretion over that stimulated by glucose alone ([2]; 10 mM alanine at 2 mM glucose): 1.25 fold
insulin secretion stimulated over the intermediate level of secretion ([2]; 10 mM alanine together with 1 mM glucose, 1.5 hours): approximately 1.13 fold
insulin secretion, +10 mM alanine ([2]; total 1 mM glucose): 103
insulin secretion, +10 mM alanine ([2]; total 2 mM glucose): 135
insulin secretion, +10 mM alanine ([2]; total 6 mM glucose): 127
insulin secretion, +10 mM alanine ([2]; total 11 mM glucose): 117
insulin secretion, +10 mM alanine ([2]; total 16 mM glucose): 101
insulin secretion, +10 mM alanine ([2]; total 22 mM glucose): 87
